Experimental data from patent publication US20110092456A1, “Methods of increasing cAMP levels and uses thereof” (priority 2009, published 2011).
One block for each compound: values may come before it.

Columns and labels:
15dPGJ2 = assay: Myocardial 15dPGJ2 levels, mouse; type: in vivo
Experimental: (§1) Protocol 1: Mice received 3-day pretreatment with: 1) SIT (300 mg/kg per day); 2) PIO (5 mg/kg per day); 3) SIT+PIO; or water alone (control). Drugs were suspended in water and administered by oral gavage once daily. On the 4th day, mice received intravenous H-89 (20 mg/kg) or vehicle (5% DMSO) (40). One hour after injection, mice underwent coronary artery ligation for 30 minutes followed by 4-hour reperfusion, or mice were euthanized under anesthesia and hearts were explanted without being subjected to ischemia. For immunoblotting and enzyme activity, hearts were rinsed in cold PBS (pH 7.4), containing 0.16 mg/ml heparin to remove red blood cells and clots, frozen in liquid nitrogen and stored at −80° C. for further analyses.
(§2) Myocardial samples of the anterior wall of the left ventricle were homogenized in cold PBS (pH 7.4), and centrifuged. The supernatants were collected and stored on ice. […] Each myocardial sample was tested in triplicate (the first without an inhibitor; the second with DuP-697, a specific COX2 inhibitor; and the third with Sc560, a specific COX1 inhibitor. COX1 activity was calculated as the difference between total COX activity in the sample without an inhibitor and the sample with Sc560, and COX2 activity as the difference between total COX activity in the sample without an inhibitor and the sample with DuP-697.

15-epi-lipoxinA4 = assay: Myocardial 15-epi-lipoxinA4 levels, mouse; type: in vivo
Experimental: as §1
(§3) Myocardial samples of the anterior wall of the left ventricle were homogenized in cold PBS (pH 7.4), and centrifuged. The supernatants were collected and stored on ice. Measurement of 6-Keto-PGF1α, the stable metabolite of prostacyclin, 15dPGJ2, 15-epilipoxinA4, and PLA2 activity were made using immunoassay assay kits. The COX activity assay kit measures the peroxidase activity of COX, assayed colorimetrically by monitoring the appearance of oxidized N,N,N″,N″-tetramethyl-p-phenylenediamaine (TMPD) at 590 nm. Each myocardial sample was tested in triplicate (the first without an inhibitor; the second with DuP-697, a specific COX2 inhibitor; and the third with Sc560, a specific COX1 inhibitor. COX1 activity was calculated as the difference between total COX activity in the sample without an inhibitor and the sample with Sc560, and COX2 activity as the difference between total COX activity in the sample without an inhibitor and the sample with DuP-697.

cPLA2 = assay: Myocardial cPLA2 activity, mouse; type: in vivo; details: for cPLA2 activity: mice, 3-day pretreatment, words
Experimental: as §1, §3

6-keto-PGF1α = assay: Myocardial 6-keto-PGF1α levels, mouse; type: in vivo
Experimental: as §1, §2

CREB = assay: Immunoblotting of myocardial CREB, mouse; type: in vivo; details: IR
Experimental: as §1
(§4) Myocardial samples from the risk zone of the anterior wall of the left ventricular wall exposed to ischemia-reperfusion (IR), or from the anterior wall of control hearts not exposed to ischemia were homogenized in lysis buffer (in mMol): 25 Tris.HCl (pH 7.4), 0.5 EDTA, 0.5 EGTA, 1 phenylmethylsulfonyl 193 fluoride, 1 dithiothreitol, 25 NaF, 1 Na3VO4, 1% Triton X-100, 2% SDS and 1% 194 protease inhibitor cocktail. The lysate was centrifuged at 10,000 g for 15 min at 4° C. The resulting supernatants were collected. Protein (50 μg) was fractionated by SDS-PAGE (4%-20% polyacrylamide gels) and transferred to PVDF membranes (Millipore, Bedford, Mass.). The membranes were incubated overnight at […] with primary antibodies. Bound antibodies were detected using the chemiluminescent substrate (NEN Life Science Products, Boston, Mass.). The protein signals were quantified 200 with an image-scanning densitometer, and the strength of each 201 protein signal was normalized to the corresponding β-actin signal. Data are expressed as percent of the expression in the 202 control group.

cAMP = assay: Myocardial cAMP levels, mouse; type: in vivo; details: for myocardial cAMP levels: mice, 3-day pretreatment, hearts not subjected to ischemia, words
Experimental: as §1
Myocardial samples from the anterior wall of the left ventricle of hearts that were not subjected to ischemia were homogenize in 1 ml cold extraction buffer [20 mM Tris-HCl (pH7.4), 0.5 mM EDTA, 0.5 mM EGTA, 10 mM β-mercaptoethanol, 1 mM phenylmethylsulfonyl fluoride, 0.1 mM dithiothreitol (DTT), 1 μg/ml leupeptin, 1 μg/ml aprotinin, 0.1% TritonX-100], centrifuged at 14,000×g for 15 min at 4° C., and the supernatants were collected. cAMP levels and PKA activity were measured using assay kits according to the manufacturer's instructions.

Protein Kinase A (PKA) = assay: Myocardial PKA activity, mouse; type: in vivo
Experimental: Protocol 1: Mice received 3-day pretreatment with: 1) SIT (300 mg/kg per day); 2) PIO (5 mg/kg per day); 3) SIT+PIO; or water alone (control). Drugs were suspended in water and administered by oral gavage once daily. […] One hour after injection, mice underwent coronary artery ligation for 30 minutes followed by 4-hour reperfusion, or mice were euthanized under anesthesia and hearts were explanted without being subjected to ischemia.

eNOS = assay: Immunoblotting of myocardial eNOS, mouse; type: in vivo
Experimental: as §1, §4

COX2 = assay: Myocardial COX2 activity, mouse; type: in vivo; details: for COX2 activity: mice, 3-day pretreatment, words
Experimental: as §1, §3

[1] = tested on: coronary artery ligation for 30 minutes followed by 4-hour reperfusion; assay: Mouse coronary artery ligation/reperfusion infarct size; type: in vivo; details: for IS, expressed as a percent of the left ventricle or a percent of the area at risk: words
Experimental: as §1
Protocol 2: Mice received 14-day pretreatment with: 1) SIT (300 mg/kg per day); 2) PIO (5 mg/kg per day); 3) SIT+PIO; or water alone (control), as above. Mice underwent coronary artery ligation for 30 minutes followed by 4-hour reperfusion. […] The chest was opened and the left coronary artery was encircled with a suture and ligated for 30 minutes. Ischemia was verified by regional dysfunction and discoloration of the ischemic zone.
Hearts were excised and the left ventricle was sliced transversely into 6 sections. Slices were incubated for 10 minutes at 37 C in 1% buffered (pH=7.4) 2,3,5-triphenyl tetrazolium-chloride (TTC), fixed in a 10% formaldehyde and photographed in order to identify the AR (uncolored by the blue dye), the IS (unstained by TTC), and the non ischemic zones (colored by blue dye). The area of AR and IS in each slice were determined by planimetry, converted into percentages of the whole for each slice, and multiplied by the weight of the slice. The results were summed to obtain the weight of the myocardial AR and IS (38, 39).

[2] = tested on: middle cerebral artery occlusion; details: rat; 2 h occlusion, 24 h reperfusion; oral cilostazol 30 mg/kg, aspirin 300 mg/kg, clopidogrel 30 mg/kg; cited from earlier work
[3] = cited from earlier work
[4] = H-89 20 mg/kg i.v. after 3-day PIO
[5] = H-89 20 mg/kg i.v. after 3-day SIT
[6] = H-89 20 mg/kg i.v. after 3-day PIO, IR
[7] = H-89 20 mg/kg i.v. after 3-day SIT, IR
[8] = Protocol 1: mice, 3-day pretreatment (SIT 300 mg/kg per day, PIO 5 mg/kg per day), H-89 20 mg/kg i.v. alone
[9] = mice, 3-day pretreatment, words
[10] = mice, 3-day pretreatment, IR-induced increase, immunoblot, words
[11] = 50 patients, primary stenting for ST elevation acute myocardial infarction, cilostazol 100 mg BID versus aspirin alone

PKA activity: H-89 on the PIO induced increase (Protein Kinase A (PKA); [4]): completely blocked
PKA activity: H-89 on the SIT induced increase (Protein Kinase A (PKA); [5]): completely blocked
Compound: O=S(=O)(NCCNC/C=C/c1ccc(Br)cc1)c1cccc2cnccc12 [H-89]
15dPGJ2 levels: H-89 on the effect of PIO (15dPGJ2; [4]): did not block the effect of PIO
15-epi-lipoxinA4 levels: H-89 on the effect of PIO (15-epi-lipoxinA4; [4]): completely blocked the effect of both PIO and SIT
15-epi-lipoxinA4 levels: H-89 on the effect of SIT (15-epi-lipoxinA4; [5]): completely blocked the effect of both PIO and SIT
cPLA2 activity: H-89 on the effect of PIO (cPLA2; [4]): did not block the effect of PIO
cPLA2 activity: H-89 in combination with SIT (cPLA2; [5]): no effect on cPLA2 activity
cPLA2 activity (cPLA2): no effect on cPLA2 activity
6-keto-PGF1α levels: H-89 on the effect of PIO (6-keto-PGF1α; [4]): did not block the effect of PIO
levels of P-CREB: H-89 on the effect of PIO (CREB; [4]): blocked this effect of SIT and PIO
levels of P-CREB: H-89 on the effect of SIT (CREB; [5]): blocked this effect of SIT and PIO
myocardial cAMP levels: H-89 on the SIT effect (cAMP; [5]): did not block the SIT effect
myocardial cAMP levels (cAMP): no effect on cAMP levels
Ser-633 P-eNOS levels: H-89 on the effect of PIO (eNOS; [6]): attenuated this increase
Ser-1177 P-eNOS levels: H-89 on the effect of PIO (eNOS; [6]): attenuated the effects of both SIT and PIO
Ser-633 P-eNOS levels: H-89 on the effect of SIT (eNOS; [7]): attenuated this increase
Ser-1177 P-eNOS levels: H-89 on the effect of SIT (eNOS; [7]): attenuated the effects of both SIT and PIO
COX2 activity: H-89 on the PIO induced increase (COX2; [4]): did not block the PIO induced increase
COX2 activity: H-89 in combination with SIT (COX2; [5]): no effect on COX2 activity
COX2 activity (COX2): no effect on COX2 activity
IS, expressed as a percent of the left ventricle or a percent of the area at risk [1, 8]: no effect on IS
IS: effect of H-89 on the effect of PIO ([1]; Protocol 1, H-89 20 mg/kg i.v. one hour before ligation after 3-day PIO): only partially blocked the effect of PIO
IS: effect of H-89 on the effect of SIT ([1]; Protocol 1, H-89 20 mg/kg i.v. one hour before ligation after 3-day SIT): completely blocked the effect of SIT

myocardial PKA activity (Protein Kinase A (PKA); mice, 3-day pretreatment, hearts not subjected to ischemia, words): augmented PKA activity
Compound: N[C@@H](CC(=O)N1CCn2c(nnc2C(F)(F)F)C1)Cc1cc(F)c(F)cc1F [SIT, sitagliptin phosphate]
15dPGJ2 levels (15dPGJ2; [9]): no effect
15-epi-lipoxinA4 levels (15-epi-lipoxinA4; [9]): significantly increased
cPLA2 activity (cPLA2): but not SIT, augmented cPLA2 activity
6-keto-PGF1α levels (6-keto-PGF1α; [9]): no effect
total CREB levels (CREB; mice, 3-day pretreatment, immunoblot, words): did not affect total CREB levels
levels of P-CREB (CREB; mice, 3-day pretreatment, versus control no IR or control IR, words): significantly higher
myocardial cAMP levels (cAMP): significant increase
Ser-633 P-eNOS levels (eNOS; [10]): augmented this increase
Ser-1177 P-eNOS levels (eNOS; [10]): augmented this increase
total eNOS levels (eNOS; mice, 3-day pretreatment, ischemia-reperfusion (IR), immunoblot, words): no effect on total eNOS levels
COX2 activity (COX2): no effect on COX2 activity
IS, expressed as a percent of the left ventricle or a percent of the area at risk [1, 8]: significantly smaller
IS, expressed as a percent of the left ventricle or a percent of the area at risk ([1]; Protocol 2: mice, 14-day pretreatment (SIT 300 mg/kg per day, PIO 5 mg/kg per day)): significantly smaller

Compound: COC(=O)[C@H](c1ccccc1Cl)N1CCc2sccc2C1 [clopidogrel]
brain infarct size [2]: but not aspirin (300 mg/kg) or clopidogrel (30 mg/kg) reduced brain infarct size

Compound: CC(=O)Oc1ccccc1C(=O)O [aspirin]
brain infarct size [2]: but not aspirin (300 mg/kg) or clopidogrel (30 mg/kg) reduced brain infarct size
6-month restenosis rate [3, 11]: 20%
target lesion revascularization [3, 11]: 16%
in-stent stenosis ([3]; 70 patients, Palmaz-Schatz stenting, cilostazol 200 mg/d, aspirin 81 mg/d): 26.8%
